Source: patent US10179355B2, “Bioremediation enhancing agents and methods of use” (JRW BIOREMEDIATION, LLC, priority 2007, dated 2019)

Assays:
Format in all cases: cell-based, Dehalococcoides and Dehalobacter spp.
[1] = system: dechlorinating bacteria known to convert PCE to ethene; test: Set B: Efficiency of electron donor utilization by COD analysis
Source text: (§1) Sets B, C, D, E, and G further contain figures and tables showing results of the characterization of the Efficiency and the Relative Efficiency of electron donor usage. Efficiency may be defined as the percent of electron donor utilized for dechlorination, and may be calculated by dividing the pmoles of Chloride ion generated by the pmoles of electron donor consumed as measured by either Volatile Fatty Acid (VFA) analysis (Sets B, C, and G) or Chemical Oxygen Demand (COD) analysis (Set D and E). The Relative Efficiency of the electron donor utilization may be defined as the Efficiency of the Electron Donor divided by the Efficiency of the Lactate Control.
Table 10 and FIG. 9 show the efficiency of electron donor (e^−) utilization as measured by COD analysis. The COD analysis calculates the utilization of electron donor by measuring the starting COD and the final COD taking the difference and converting mg/L to pmoles of electrons. The pmoles of electrons used for dechlorination was determined from the calculated Chloride produced leading to an Efficiency and Relative Efficiency of electron donor utilization as compared to lactate.

[2] = system: dechlorinating bacteria known to convert PCE to ethene; test: Set C: Efficiency by Volatile Fatty Acid Analysis
Source text: as §1
The method used to calculate the consumption of the electron donor measured the propionate, acetate and formate levels to calculate the consumption of electron donor over time. The lactate and propionate fermented very rapidly resulting in acetate and formate as the only measurable VFAs.

[3] = system: dechlorinating bacteria known to convert PCE to ethene; test: Set C: Nutrient Comparisons, PCE dechlorination microcosms (kinetics, Relative Rate)
Source text: Certain contaminated materials (or sites) may contain indigenous microbial communities that are sufficient for complete bioremediation of contaminants. For such sites, there is no need to add microbes unless the indigenous microbes are genetically deficient in achieving the desired clean-up goals. For those sites that are microbiologically limited, microorganisms may be added to the contaminated materials (or sites). In one embodiment, the inoculum may be a mixed culture of halo-respiring bacteria that have been enriched to reach an optimal cell density. These mixed cultures of halo-respiring bacteria may be typically obtained from sediment samples from rivers, streams or any waterways. More specifically, the inoculum used in the Examples was originated from a Sangamon River sediment sample (Lodge Park, Piatt County, Ill.) See, e.g., Brennan, R. A., Sanford, R. A. and Werth, C. J. (2006). “Biodegradation of Tetrachloroethene by Chitin Fermentation Products in a Continuous Flow Column System.” Journal of Environ. Engr., June 665-673. This culture had grown for several years on PCE, anaerobic basal salts medium, Wolfe's vitamin solution and various electron donors including lactate (1-2 millimolar (mM)), formate (4 mM) and chitin using the Volatile Interface Transfer Apparatus (VITA) reactor system at the University of Illinois. Brennan, R. A., and Sanford, R. A. (2002). “Continuous steady-state method using Tenax for delivering tetrachloroethene to chlororespiring bacteria.” Appl. Environ. Microbiol., 68(3), 1464-1467. […] Using 16S rRNA gene-specific primers, both Dehalococcoides and Dehalobacter spp. were detected. Quantitative real-time PCR has been used to determine that approximately 1.65×10^7 Dehalococcoides gene copies were present per ml of culture.
For purpose of this disclosure, each bottle may be started with a certain amount of PCE. At subsequent times each bottle may be sampled for the degradation daughter products of PCE, namely trichloroethene (TCE), cis-dichloroethene (DCE), vinyl chloride (VC) and ethene, etc. Trans-DCE and 1,1-DCE are also daughter products of PCE, but they may not be detectable under the conditions disclosed here.
The rate of degradation may be determined by calculating the number of pmoles of chloride ions removed from PCE and subsequently from the amounts of the daughter products generated. The calculation may be performed as follows: Chloride (μmoles)=[…]−4×PCE (μmoles)−3×TCE (pmoles)−2×DCE (μmoles)−VC (μmoles)
Next, the dechlorination rate may be determined for each bottle at each time by dividing the Chloride generated by the time (days). The data may be then normalized to the lactate control by taking the ratio of Chloride Rate (pmoles/day) and the Lactate Control Chloride Rate (pmoles/day). This ratio is called Relative Rate and is dimensionless.
As shown in the Examples, a paired t-test has been conducted to calculate the probability that the Relative Rate of one group (i.e. with Nutrient) is greater than the other group (i.e. without Nutrient). The null hypothesis is that the underlying means of the two paired groups are equal. The Probability that one group has higher Relative Rates than the other group is shown in various tables in the Examples.
The following components were used in the system for bioremediating contaminated ground water microcosms in Examples 2-8: • 160 milliliter (ml) stoppered serum bottles • 100 ml of anaerobic culture medium, groundwater containing an excess of bioavailable phosphorus and nitrogen at 0.5 mM Phosphate and 1 mM ammonium degassed with a nitrogen sparge • Nominally 1 gram of limestone • 19.54 micromoles (pmoles) Perchloroethene (PCE) • An excess of various electron donors were utilized • 3 ml of inoculum containing dechlorinating bacteria known to convert PCE to ethene. […]

## CC(O)C(=O)[O-].[Na+] (stereo not shown) [Lactate Control, sodium lactate]
[1]
  % of e^− used for dechlor.: 13.1%
[1]; Efficiency by COD analysis
  Chloride: 77.16 pmol
[1]; relative to Lactate Control
  Relative Efficiency: 100%
[2]
  Estimated % Efficiency: 2.55%
[2]; relative to Lactate Control
  Relative Efficiency: 1.00
[3]
  Average Relative Rate: 1.00
[3]; 0 days
  Cl^− Rate ± s.d.: 0.00 ± 0.00 µmol
  Cl^− ± s.d.: 0.00 ± 0.00 µmol
  DCE ± s.d.: 0.00 ± 0.00 µmol
  Ethene ± s.d.: 0.00 ± 0.00 µmol
  PCE ± s.d.: 19.54 ± 0.00 µmol
  TCE ± s.d.: 0.00 ± 0.00 µmol
  VC ± s.d.: 0.00 ± 0.00 µmol
[3]; 21 days
  Cl^− Rate ± s.d.: 2.43 ± 0.13 µmol
  Cl^− ± s.d.: 51.01 ± 2.69 µmol
  DCE ± s.d.: 5.05 ± 0.62 µmol
  Ethene ± s.d.: 0.09 ± 0.02 µmol
  PCE ± s.d.: 0.66 ± 0.52 µmol
  TCE ± s.d.: 1.20 ± 1.01 µmol
  VC ± s.d.: 10.83 ± 1.56 µmol
[3]; 35 days
  Cl^− Rate ± s.d.: 1.36 ± 0.03 µmol
  Cl^− ± s.d.: 47.71 ± 1.16 µmol
  DCE ± s.d.: 2.02 ± 1.88 µmol
  Ethene ± s.d.: 0.54 ± 0.29 µmol
  PCE ± s.d.: 0.00 ± 0.00 µmol
  TCE ± s.d.: 0.00 ± 0.00 µmol
  VC ± s.d.: 26.41 ± 2.65 µmol
[3]; 49 days
  Cl^− Rate ± s.d.: 1.03 ± 0.01 µmol
  Cl^− ± s.d.: 50.42 ± 0.27 µmol
  DCE ± s.d.: 0.00 ± 0.00 µmol
  Ethene ± s.d.: 3.79 ± 1.31 µmol
  PCE ± s.d.: 0.00 ± 0.00 µmol
  TCE ± s.d.: 0.00 ± 0.00 µmol
  VC ± s.d.: 27.74 ± 0.27 µmol
[3]; bottle 1, 21 days
  Relative Rate: 1.06
[3]; bottle 1, 35 days
  Relative Rate: 1.02
[3]; bottle 1, 49 days
  Relative Rate: 1.00
[3]; bottle 2, 21 days
  Relative Rate: 0.99
[3]; bottle 2, 35 days
  Relative Rate: 0.97
[3]; bottle 2, 49 days
  Relative Rate: 0.99
[3]; bottle 3, 21 days
  Relative Rate: 0.95
[3]; bottle 3, 35 days
  Relative Rate: 1.00
[3]; bottle 3, 49 days
  Relative Rate: 1.01
